Experimental data as given in patent publication US10155768B2, “Fused pyrimidine compound or salt thereof” (TAIHO PHARMACEUTICAL CO., LTD., priority 2016, dated 2018).
Where two headings read alike, the source gives them in different places.

Legend:
[1] = mouse, microsomes, 0.5 h
Procedure: Solutions of the test compounds in DMSO/acetonitrile (the final concentration of each test compound was 1 μM, the final concentration of DMSO was 0.01%, and the final concentration of acetonitrile was 1%) were individually added to a liver microsome mixture solution (mouse liver microsome with a final concentration of 0.25 mg/mL, a potassium phosphate buffer with a final concentration of 100 mM, and magnesium chloride with a final concentration of 3 mM), and each mixture was pre-incubated at 37° C. for 5 minutes. […] After incubation at 37° C. for 30 minutes, a double amount of ethanol was added thereto to terminate the reaction, thereby obtaining post-reaction samples. A double amount of ethanol was added to each of the remaining mixture solutions, and a NADPH-generating system was further added thereto, thereby obtaining pre-reaction samples. The pre-reaction samples and post-reaction samples were centrifuged at 2000×g, and their supernatant was filtered through a glass filter. Each filtrate was then introduced into LC-MS/MS, and MS/MS peaks of the test compounds were detected. From the ratio of the post-reaction MS/MS peak to the pre-reaction MS/MS peak of the test compounds, the percentage of the remaining test compounds (remaining %) was calculated.

[2] = test system: LC-2/ad cells (a human lung adenocarcinoma cell line with CCDC6-RET fusion gene); experiment: Cell growth inhibitory effect (2), LC-2/ad cells; format: cell-based; details: 168 h, read-out: LC-2/ad Cell GI50
Procedure: An in vitro cytotoxicity test was performed on LC-2/ad cells (a human lung adenocarcinoma cell line with CCDC6-RET fusion gene).
(§1) After shaking, each culture was allowed to stand at room temperature for 15 minutes, and the chemiluminescence was measured with a luminometer to use it as an index of the number of viable cells.

[3] = test system: TT cells (human thyroid cancer cell line with RET activating mutation); experiment: In vivo antitumor effect, mice subcutaneously implanted with TT cells; set-up: species or system BALB/cA Jcl-nu/nu male mice; details: 100 mg/kg/day oral, 14 days
Procedure: Human thyroid cancer cell lines (TT) were subcutaneously implanted into the right frank of 6- to 7-week-old BALB/cA Jcl-nu/nu male mice. After about 2 to 3 weeks from the cell implantation, the length (nm) and the width (mm) of tumors found in mouse bodies were measured. […] The day on which the mice were divided into groups was determined to be the “grouping day” (day 0 or 1).
A control group was administered a solvent (0.5% HPMC/0.1N HCl).
To determine the index of the antitumor effect, TV of each drug-administrated group was measured on day 15, and the tumor volume on day 15 relative to the tumor volume on the grouping day (day 0 or 1) (relative tumor volume: RTV) and T/C (%) were calculated from the following equations, and the antitumor effect was evaluated. […] TV(mm^3)=(length×width^2)/2 RTV=(TV on day 15)/(TV on day 0 or day 1) T/C(%)=(the mean RTV of a test compound treatment group)/(the mean RTV of the control group)×100

[4] = test system: TT cells (a human thyroid cancer cell line with RET activating mutation (C634W)); experiment: Cell growth inhibitory effect (1), TT cells; format: cell-based; details: 168 h, read-out: TT Cell GI50 (nM)
Procedure: An in vitro cytotoxicity test was performed on TT cells (a human thyroid cancer cell line with RET activating mutation (C634W)).
as §1
C: The absorbance of the well to which a test compound was not added. Day 1: The day on which a test compound was added. Day 8: The day on which evaluation was performed.

[5] = molecular target: recombinant human RET protein (Homo sapiens (Human), UniProt P07949); experiment: Measurement of inhibitory activity against RET (in vitro); format: biochemical; details: ATP 10 μM
Sequence of recombinant human RET protein (P07949 29-1114): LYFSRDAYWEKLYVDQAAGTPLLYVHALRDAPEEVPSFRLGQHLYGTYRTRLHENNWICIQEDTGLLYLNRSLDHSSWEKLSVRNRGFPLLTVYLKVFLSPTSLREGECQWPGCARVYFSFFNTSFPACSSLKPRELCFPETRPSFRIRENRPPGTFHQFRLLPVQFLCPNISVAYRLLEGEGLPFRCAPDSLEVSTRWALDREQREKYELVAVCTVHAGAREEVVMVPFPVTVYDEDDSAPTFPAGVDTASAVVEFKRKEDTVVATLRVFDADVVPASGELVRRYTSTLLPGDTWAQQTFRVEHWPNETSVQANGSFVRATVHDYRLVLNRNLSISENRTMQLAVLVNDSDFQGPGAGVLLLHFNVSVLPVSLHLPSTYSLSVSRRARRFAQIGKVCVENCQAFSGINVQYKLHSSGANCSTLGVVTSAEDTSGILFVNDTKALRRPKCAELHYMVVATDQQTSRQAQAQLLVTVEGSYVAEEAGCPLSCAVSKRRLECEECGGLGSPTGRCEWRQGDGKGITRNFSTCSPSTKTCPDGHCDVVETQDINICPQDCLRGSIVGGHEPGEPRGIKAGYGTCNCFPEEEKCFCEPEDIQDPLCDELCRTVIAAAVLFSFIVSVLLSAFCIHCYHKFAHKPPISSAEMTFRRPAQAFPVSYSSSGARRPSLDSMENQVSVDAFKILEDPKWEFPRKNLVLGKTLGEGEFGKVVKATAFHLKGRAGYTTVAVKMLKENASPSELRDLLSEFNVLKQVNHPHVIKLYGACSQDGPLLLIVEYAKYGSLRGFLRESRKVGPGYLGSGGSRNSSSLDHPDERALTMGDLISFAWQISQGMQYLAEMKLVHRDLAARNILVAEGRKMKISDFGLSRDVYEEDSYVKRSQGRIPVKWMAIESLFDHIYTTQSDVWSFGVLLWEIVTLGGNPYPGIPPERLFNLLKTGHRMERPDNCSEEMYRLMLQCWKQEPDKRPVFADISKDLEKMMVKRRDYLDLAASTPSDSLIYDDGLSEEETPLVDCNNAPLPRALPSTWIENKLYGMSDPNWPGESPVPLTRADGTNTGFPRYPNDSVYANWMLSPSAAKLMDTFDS

COCc1ccc(NC(=O)c2c(C#CCN3CCOCC3)n(C3(C)CC3)c3ncnc(N)c23)cc1 [Example 85, 4-amino-N-[4-(methoxymethyl)phenyl]-7-(1-methylcyclopropyl)-6-(3-morpholinoprop-1-yn-1-yl)-7H-pyrrolo[2,3-d]pyrimidine-5-carboxamide]
Remaining (%) [1]: 79% | GI50 [2]: 17.7 nM | T/C (%) ([3]; day 15): 23% | TV (mm^3) Day 15 Mean ± SE ([3]; day 15): 139.42 ± 10.17 mm^3 | RTV Day 15 Mean ± SE ([3]; day 15 relative to day 0): 0.87 ± 0.13 | GI50 [4]: 10 nM

C/C=C/c1ccc(NC(=O)c2cn(C3(C)CC3)c3ncnc(N)c23)cc1 [Example 107, (E)-4-amino-7-(1-methylcyclopropyl)-N-(4-(prop-1-en-1-yl)phenyl)-7H-pyrrolo[2,3-d]pyrimidine-5-carboxamide]
Remaining (%) [1]: 63%

COCc1ccc(NC(=O)c2nn(-c3ccccc3)c3ncnc(N)c23)cc1 [Comound 5 of Comparative Examples, 4-amino-N-(4-(methoxymethyl)phenyl)-1-phenyl-1H-pyrazolo[3,4-d]pyrimidine-3-carboxamide]
IC50 [5]: > 5000 nM

C/C=C/c1ccc(NC(=O)c2c(OCC)n(C3(C)CC3)c3ncnc(N)c23)cc1 [Example 117, (E)-4-amino-6-ethoxy-7-(1-methylcyclopropyl)-N-(4-(prop-1-en-1-yl)phenyl)-7H-pyrrolo[2,3-d]pyrimidine-5-carboxamide]
Remaining (%) ([1]; 1 μM): 53%

C#Cc1ccc(NC(=O)c2cn(C3(C)CC3)c3ncnc(N)c23)cc1 [Example 108, 4-amino-N-(4-ethynylphenyl)-7-(1-methylcyclopropyl)-7H-pyrrolo[2,3-d]pyrimidine-5-carboxamide]
Remaining (%) [1]: 60%
